Measured values: ChEMBL document CHEMBL6127043, “Design and synthesis of pyrano[2,3-c]pyrazole-4-aminoquinoline hybrids as effective antimalarial compounds” (Eur J Med Chem, 2024)

Assays:
Plasmodium falciparum [1] = test: Antimalarial activity against chloroquine-resistant Plasmodium falciparum K1 incubated for 72 hrs by SYBR green I dye based fluorescence analysis; type: functional, organism-based; conditions: K1, 72 h
[2] = Selectivity index, ratio of IC50 for cytotoxicity against African green monkey Vero cells to IC50 for antimalarial activity against Plasmodium falciparum W2; type: toxicity, cell-based; conditions: Vero cells versus Plasmodium falciparum W2, read-out: Ratio IC50
Plasmodium falciparum [3] = test: Antimalarial activity against chloroquine-resistant ring stage Plasmodium falciparum K1 infected in erythrocytes assessed as reduction in parasite growth measured at 48 hrs interval by Giemsa staining based microscopic analysis; type: functional, organism-based; conditions: K1, Erythrocyte
[4] = Selectivity index, ratio of IC50 for cytotoxicity against human WRL68 cells to IC50 for antimalarial activity against Plasmodium falciparum K1 infected in erythrocytes; type: toxicity, cell-based; conditions: WRL68 cells versus Plasmodium falciparum K1 in erythrocytes, read-out: Ratio IC50
Plasmodium falciparum [5] = test: Antimalarial activity against chloroquine-sensitive ring stage Plasmodium falciparum 3D7 infected in erythrocytes assessed as reduction in parasite growth measured at 48 hrs interval by Giemsa staining based microscopic analysis; type: functional, organism-based; conditions: 3D7, Erythrocyte
[6] = Selectivity index, ratio of IC50 for cytotoxicity against human WRL68 cells to IC50 for antimalarial activity against Plasmodium falciparum 3D7 infected in erythrocytes; type: toxicity, cell-based; conditions: WRL68 cells versus Plasmodium falciparum 3D7 in erythrocytes, read-out: Ratio IC50
Plasmodium falciparum [7] = test: Resistance index, ratio of IC50 for antimalarial activity against chloroquine resistant Plasmodium falciparum K1 infected in erythrocytes to IC50 for antimalarial activity against chloroquine sensitive Plasmodium falciparum 3D7 infected in erythrocytes; type: functional
[8] = Cytotoxicity against human WRL68 cells assessed as reduction in cell viability incubated for 72 hrs by MTT assay; type: toxicity, cell-based
Plasmodium falciparum [9] = test: Antimalarial activity against Plasmodium falciparum NF54 incubated for 48 hrs by NBT reagent based assay; type: functional, organism-based; conditions: NF54, 48 h

SMILES	IC50 (Plasmodium falciparum [1]) [nM]	selectivity ratio [2]	IC50 (Plasmodium falciparum [3]) [nM]	selectivity ratio [4]	IC50 (Plasmodium falciparum [5]) [nM]	selectivity ratio [6]	Ratio IC50 (Plasmodium falciparum [7])	IC50 at 72 h [8] [nM]	IC50 (Plasmodium falciparum [9]) [nM]
Clc1ccc2c(NCCn3cncc3C3CCCC3)ccnc2c1	340								
O=C1c2ccc(N3CCN(CCO)CC3)cc2C(=O)N1CCCNc1ccnc2cc(Cl)ccc12		> 4200							
CCOC(=O)c1nn(CCNc2ccnc3cc(Cl)ccc23)c2c1C(c1ccccc1)C(C#N)=C(N)O2 (stereo not drawn)			419	195	19	4360	22.39	81500	
CCOC(=O)c1nn(CCNc2ccnc3cc(Cl)ccc23)c2c1C(c1ccc(O)cc1)C(C#N)=C(N)O2 (stereo not drawn)			2750	18	15	3200	180.66	48600	
CCOC(=O)c1nn(CCNc2ccnc3cc(Cl)ccc23)c2c1C(c1ccco1)C(C#N)=C(N)O2 (stereo not drawn)			207	230	25	1920	8.34	47600	
CCOC(=O)c1nn(CCNc2ccnc3cc(Cl)ccc23)c2c1C(c1cccc([N+](=O)[O-])c1)C(C#N)=C(N)O2 (stereo not drawn)			106	333	28	1260	3.8	35400	
CCOC(=O)c1nn(CCNc2ccnc3cc(Cl)ccc23)c2c1C(c1ccc(O)c(Br)c1)C(C#N)=C(N)O2 (stereo not drawn)			232	265	23	2650	10	61600	
CCOC(=O)c1nn(CCNc2ccnc3cc(Cl)ccc23)c2c1C(c1cccc(O)c1)C(C#N)=C(N)O2 (stereo not drawn)			1340	51	17	3960	77.46	68600	
CCOC(=O)c1nn(CCNc2ccnc3cc(Cl)ccc23)c2c1C(c1ccc(OC)cc1)C(C#N)=C(N)O2 (stereo not drawn)			254	514	21	6220	12.1	131000	
CCOC(=O)c1nn(CCNc2ccnc3cc(Cl)ccc23)c2c1C(c1c(O)ccc3ccccc13)C(C#N)=C(N)O2 (stereo not drawn)			20	334	301	22	0.07	6690	
CCOC(=O)c1nn(CCNc2ccnc3cc(Cl)ccc23)c2c1C(c1cccs1)C(C#N)=C(N)O2 (stereo not drawn)			37	1590	23	2570	1.62	59500	
CCOC(=O)c1nn(CCNc2ccnc3cc(Cl)ccc23)c2c1C(c1ccc(C#N)cc1)C(C#N)=C(N)O2 (stereo not drawn)			37	> 4920	19	> 9450	1.92	> 183000	
CCOC(=O)c1nn(CCNc2ccnc3cc(Cl)ccc23)c2c1C(c1ccc(OCC)cc1)C(C#N)=C(N)O2 (stereo not drawn)			86	81	24	290	3.57	6980	
CCOC(=O)c1nn(CCNc2ccnc3cc(Cl)ccc23)c2c1C(c1ccc([N+](=O)[O-])cc1)C(C#N)=C(N)O2 (stereo not drawn)			294	193	110	563	2.92	56900	
CCOC(=O)c1nn(CCNc2ccnc3cc(Cl)ccc23)c2c1C(c1cccc(OCC)c1)C(C#N)=C(N)O2 (stereo not drawn)			26	815	68	308	0.38	20900	
CCOC(=O)c1nn(CCNc2ccnc3cc(Cl)ccc23)c2c1C(c1ccc(Cl)cc1)C(C#N)=C(N)O2 (stereo not drawn)			48	252	26	467	1.85	12100	
CCOC(=O)c1nn(CCNc2ccnc3cc(Cl)ccc23)c2c1C(c1ccccn1)C(C#N)=C(N)O2 (stereo not drawn)			24	3780	21	4350	1.15	90500	
CCOC(=O)c1nn(CCNc2ccnc3cc(Cl)ccc23)c2c1C(c1ccc(O)cc1O)C(C#N)=C(N)O2 (stereo not drawn)			250	93	19	1220	13.13	23200	
CCOC(=O)c1nn(CCNc2ccnc3cc(Cl)ccc23)c2c1C(c1ccccc1OC)C(C#N)=C(N)O2 (stereo not drawn)			592	44	15	1730	39.18	26100	
CCOC(=O)c1nn(CCNc2ccnc3cc(Cl)ccc23)c2c1C(c1ccc(C(=O)O)cc1)C(C#N)=C(N)O2 (stereo not drawn)			210	411	38	2280	5.53	86500	
CCOC(=O)c1nn(CCNc2ccnc3cc(Cl)ccc23)c2c1C(c1ccc(Br)cc1)C(C#N)=C(N)O2 (stereo not drawn)			19	309	33	178	0.58	5850	
O=C(/C=C/c1ccccc1Br)c1ccc(S(=O)(=O)NCCCNc2ccnc3cc(Cl)ccc23)cc1									100
CCN(CC)CCCC(C)Nc1ccnc2cc(Cl)ccc12 (stereo not drawn) [CHLOROQUINE PHOSPHATE]								60600	
